Reference: ChEMBL document CHEMBL1201862, “PubChem BioAssay data set” (2004)
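Each compound was tested at five concentrations against cells in 96-well plates for 48 hours. GI50: concentration for 50% inhibition of growth.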 Calls of active or inactive are those of the source. Cut-off read from the data, not from the text of the source: active = GI50 up to about 1.1 µM and inactive = higher.

Tests used:
Test in all cases: NCI-60 cell line screen, 48 h
A549 = test system: A549
COLO 205 = test system: COLO 205
HCC 2998 = test system: HCC 2998
HOP-92 = test system: HOP-92
HT-29 = test system: HT-29
Hs-578T = test system: Hs-578T
KM12 = test system: KM12
OVCAR-3 = test system: OVCAR-3
OVCAR-5 = test system: OVCAR-5
SF-295 = test system: SF-295
SK-MEL-2 = test system: SK-MEL-2
SK-OV-3 = test system: SK-OV-3
SNB-75 = test system: SNB-75
SR = test system: SR
U-251 = test system: U-251
UACC-257 = test system: UACC-257
UACC-62 = test system: UACC-62
MOLT-4 = test system: MOLT-4
CCRF-CEM = test system: CCRF-CEM

In the case of `CNC/C(Cl)=N/S(=O)(=O)c1ccc(C)cc1`, the GI50 (A549) is reported as 13.2 µM (inactive), the GI50 (COLO 205) is reported as 17.5 µM (inactive) and the GI50 (HCC 2998) is reported as 4.74 µM (inactive). The GI50 (HOP-92) was 14.8 µM (inactive), the GI50 (HT-29) was 19.2 µM (inactive) and the GI50 (Hs-578T) was 28.8 µM (inactive). For the same molecule, the GI50 (KM12) was 13.8 µM (inactive), the GI50 (OVCAR-3) was 12.4 µM (inactive) and the GI50 (OVCAR-5) was 21 µM (inactive). The GI50 (SF-295) was 14.7 µM (inactive), the GI50 (SK-MEL-2) was 15 µM (inactive) and the GI50 (SK-OV-3) was 22.8 µM (inactive). The GI50 (SNB-75) was 5.18 µM (inactive), the GI50 (SR) was 3.84 µM (inactive) and the GI50 (U-251) was 6.93 µM (inactive). The GI50 (UACC-257) was 9.27 µM (inactive) and the GI50 (UACC-62) was 9.64 µM (inactive).
With `CC1=CC2=C(C(N)=O)C(=O)OC2(C)C(c2ccccc2)C1` (stereo unspecified) the GI50 (A549) was > 100 µM (inactive), the GI50 (HOP-92) was > 100 µM (inactive) and the GI50 (HT-29) was > 100 µM (inactive). For the same molecule, the GI50 (Hs-578T) was > 100 µM (inactive), the GI50 (KM12) was > 100 µM (inactive) and the GI50 (MOLT-4) was > 100 µM (inactive). The GI50 (OVCAR-3) was > 100 µM (inactive), the GI50 (OVCAR-5) was > 100 µM (inactive) and the GI50 (SF-295) was > 100 µM (inactive). The GI50 (SK-MEL-2) was > 100 µM (inactive), the GI50 (SK-OV-3) was > 100 µM (inactive) and the GI50 (SNB-75) was 3.03 µM (inactive). The GI50 (SR) was > 100 µM (inactive), the GI50 (U-251) was > 100 µM (inactive) and the GI50 (UACC-257) was > 100 µM (inactive). For the same molecule, the GI50 (UACC-62) was > 100 µM (inactive).
With `COc1ccc(C[n+]2cccc(O)c2)cc1` the GI50 (A549) was > 100 µM (inactive), the GI50 (CCRF-CEM) was > 100 µM (inactive) and the GI50 (HCC 2998) was > 100 µM (inactive). For the same molecule, the GI50 (HOP-92) was > 100 µM (inactive), the GI50 (HT-29) was > 100 µM (inactive) and the GI50 (Hs-578T) was > 100 µM (inactive). The GI50 (KM12) was > 100 µM (inactive), the GI50 (MOLT-4) was > 100 µM (inactive) and the GI50 (OVCAR-3) was > 100 µM (inactive). The GI50 (OVCAR-5) was > 100 µM (inactive), the GI50 (SF-295) was > 100 µM (inactive) and the GI50 (SK-MEL-2) was > 100 µM (inactive). For the same molecule, the GI50 (SK-OV-3) was > 100 µM (inactive), the GI50 (SR) was > 100 µM (inactive) and the GI50 (U-251) was > 100 µM (inactive). The GI50 (UACC-62) was > 100 µM (inactive).
With `Nc1ccccc1SC(C[N+](=O)[O-])c1ccc2c(c1)OCO2` (stereo unspecified) the GI50 (A549) was 3.1 µM (inactive), the GI50 (COLO 205) was 3.71 µM (inactive) and the GI50 (HCC 2998) was 1.78 µM (inactive). For the same molecule, the GI50 (HOP-92) was 15.6 µM (inactive), the GI50 (HT-29) was 1.89 µM (inactive) and the GI50 (Hs-578T) was 5.64 µM (inactive). The GI50 (KM12) was 2.44 µM (inactive), the GI50 (MOLT-4) was 2.3 µM (inactive) and the GI50 (OVCAR-3) was 3.28 µM (inactive). The GI50 (OVCAR-5) was 3.65 µM (inactive), the GI50 (SF-295) was 4.89 µM (inactive) and the GI50 (SK-MEL-2) was 14.6 µM (inactive). For the same molecule, the GI50 (SK-OV-3) was 4.54 µM (inactive), the GI50 (SNB-75) was 2.34 µM (inactive) and the GI50 (SR) was 1.91 µM (inactive). For the same molecule, the GI50 (U-251) was 2.64 µM (inactive), the GI50 (UACC-257) was 1.81 µM (inactive) and the GI50 (UACC-62) was 13.2 µM (inactive).
`O=c1c(=O)c2cscc2c1=O` was tested, and the GI50 (A549) was 8.99 µM (inactive), the GI50 (COLO 205) was 4.73 µM (inactive) and the GI50 (HCC 2998) was 2.92 µM (inactive). For the same molecule, the GI50 (HOP-92) was 5.47 µM (inactive), the GI50 (HT-29) was 4.93 µM (inactive) and the GI50 (Hs-578T) was 9.75 µM (inactive). For the same molecule, the GI50 (KM12) was 5.15 µM (inactive), the GI50 (MOLT-4) was 4.58 µM (inactive) and the GI50 (OVCAR-3) was 5.62 µM (inactive). The GI50 (OVCAR-5) was 4.74 µM (inactive), the GI50 (SF-295) was > 25 µM (inactive) and the GI50 (SK-MEL-2) was 4.92 µM (inactive). The GI50 (SK-OV-3) was > 25 µM (inactive), the GI50 (SNB-75) was 4.32 µM (inactive) and the GI50 (SR) was 0.137 µM (active). For the same molecule, the GI50 (U-251) was 4.75 µM (inactive), the GI50 (UACC-257) was 4.27 µM (inactive) and the GI50 (UACC-62) was 4.73 µM (inactive).
In the case of `Cc1ccc2c(c1)NC(=O)CCSSCCC(=O)N2`, the GI50 (A549) is reported as > 100 µM (inactive), the GI50 (CCRF-CEM) is reported as > 100 µM (inactive) and the GI50 (COLO 205) is reported as > 100 µM (inactive). The GI50 (HOP-92) was > 100 µM (inactive), the GI50 (HT-29) was > 100 µM (inactive) and the GI50 (Hs-578T) was > 100 µM (inactive). For the same molecule, the GI50 (KM12) was > 100 µM (inactive), the GI50 (MOLT-4) was > 100 µM (inactive) and the GI50 (OVCAR-3) was > 100 µM (inactive). For the same molecule, the GI50 (OVCAR-5) was > 100 µM (inactive), the GI50 (SF-295) was > 100 µM (inactive) and the GI50 (SK-MEL-2) was > 100 µM (inactive). For the same molecule, the GI50 (SK-OV-3) was > 100 µM (inactive), the GI50 (SR) was > 100 µM (inactive) and the GI50 (U-251) was > 100 µM (inactive). For the same molecule, the GI50 (UACC-257) was > 100 µM (inactive) and the GI50 (UACC-62) was > 100 µM (inactive).
`O=C1/C(=C\c2ccccc2)C(NC2CCCCC2)c2ccccc21` (stereo unspecified) was tested, and the GI50 (A549) was 4.05 µM (inactive), the GI50 (CCRF-CEM) was 0.124 µM (active) and the GI50 (COLO 205) was 1.55 µM (inactive). For the same molecule, the GI50 (HOP-92) was 1.96 µM (inactive), the GI50 (HT-29) was 1.42 µM (inactive) and the GI50 (Hs-578T) was 3.18 µM (inactive). The GI50 (KM12) was 4.44 µM (inactive), the GI50 (MOLT-4) was 0.817 µM (active) and the GI50 (OVCAR-3) was 1.24 µM (inactive). For the same molecule, the GI50 (OVCAR-5) was 4.17 µM (inactive), the GI50 (SF-295) was 18.8 µM (inactive) and the GI50 (SK-MEL-2) was 2.24 µM (inactive). For the same molecule, the GI50 (SK-OV-3) was 14 µM (inactive), the GI50 (SNB-75) was 2.17 µM (inactive) and the GI50 (SR) was 0.206 µM (active). The GI50 (U-251) was 1.73 µM (inactive), the GI50 (UACC-257) was 1.29 µM (inactive) and the GI50 (UACC-62) was 2.38 µM (inactive).
For `O=C1c2ccc3ccccc3c2CCC1N1CCCCC1` (stereo unspecified), the GI50 (A549) was 19.5 µM (inactive), the GI50 (COLO 205) was 19.5 µM (inactive) and the GI50 (HOP-92) was 16.6 µM (inactive). For the same molecule, the GI50 (HT-29) was 20.5 µM (inactive), the GI50 (Hs-578T) was 20.3 µM (inactive) and the GI50 (KM12) was 17.7 µM (inactive). For the same molecule, the GI50 (OVCAR-3) was 15.4 µM (inactive), the GI50 (OVCAR-5) was 19.7 µM (inactive) and the GI50 (SF-295) was 19.3 µM (inactive). For the same molecule, the GI50 (SK-MEL-2) was 19.6 µM (inactive), the GI50 (SK-OV-3) was 22 µM (inactive) and the GI50 (SNB-75) was 17.4 µM (inactive). For the same molecule, the GI50 (SR) was 15.1 µM (inactive), the GI50 (U-251) was 18.9 µM (inactive) and the GI50 (UACC-257) was 20.7 µM (inactive). For the same molecule, the GI50 (UACC-62) was 16.7 µM (inactive).
